Test results: patent EP2265631B1, “NOVEL ANTIMICROBIAL PEPTIDES AND THEIR APPLICATION” (Ustav Organicke Chemie a Biochemie Akademie Ved Ceske …, priority 2008, dated 2009)

Experiments:
[1] = tested on: rat red blood cells; assay: Determination of hemolytic activity; format: cell-based; conditions: rat red blood cells (5%), 1 h at 37°C, peptides 1-200 µM
Protocol: The peptides in the concentration (1-200 µM) were incubated with rat red blood cells (5%) for 1 h at 37°C in a physiological solution at a final volume of 0.2 ml. The samples were then centrifuged for 5 min at 250 g, and the absorbance of the supernatant was determined at 540 nm. Supernatants of red blood cells suspended in physiological solution and in 0.2% TRITON X100 in physiological solution served as controls for zero hemolysis (blank) and 100% hemolysis, respectively. Table 3. Antimicrobial and hemolytic activity of melectin (I) and its synthetic analogs of formulas II/1 to II/18

[2] = tested on: Pseudomonnas aeruginosa; assay: Determination of antimicrobial activity (MIC, bacterial growth in LB broth); format: cell-based; conditions: minimum inhibitory concentration (MIC) per method, 37°C, 20 h, read-out: Antimicrobial activity IC50 [µM] P.a.
Protocol: (§1) Antimicrobial activity was determined as a quantitative minimum inhibitory concentration (MIC) by observing bacterial growth in the presence of different concentrations of tested peptides. Mid-exponential phase bacteria were added to the solutions of the tested antimicrobial peptide at different concentrations (0.5 to 100 µM) in LB broth in multi-well plates. The plates were incubated at 37°C for 20 h while being continuously shaken in a Bioscreen C instrument (Finland). The absorbance was measured at 540 nm every 15 min and each peptide was tested at least 3 times in duplicate. 1.2.10^3 - 7.5.10^3 CFU of bacteria was routinely used in the experiments. Tetracycline in a concentration range of 0.1 - 50 µM was tested as a standard.

[3] = tested on: Escherichia coli; assay: as above; format: cell-based; conditions: minimum inhibitory concentration (MIC) per method, 37°C, 20 h, read-out: Antimicrobial activity IC50 [µM] E. c.
Protocol: as §1

[4] = tested on: Staphylococcus aureus; assay: as above; format: cell-based; conditions: minimum inhibitory concentration (MIC) per method, 37°C, 20 h, read-out: Antimicrobial activity IC50 [µM] S.a.
Protocol: as §1

[5] = tested on: Bacilus subtilis; assay: as above; format: cell-based; conditions: minimum inhibitory concentration (MIC) per method, 37°C, 20 h, read-out: Antimicrobial activity IC50 [µM] B.s.
Protocol: as §1

[6] = tested on: CCRF-CEM T lymphoblastoid; assay: Cytostatic effect on cancer cells (e.g. MTT test); format: cell-based, human; conditions: 24-72 h incubation, 50% decrease in cell viability
Protocol: (§2) Tumor cells in suspension or adherent cells were incubated under standard conditions in appropriate culture media for 24-72 h with the peptides in 2-40 micromolar concentration. After this time, the number of living cells was determined using routine tests, e.g. MTT test. The IC50 was determined as concentration of peptides, which caused 50% decrease in cell viability in comparison to controls (no peptide present). In preliminary tests mouse lymphocytic leukemia L1210 (CCL 219), CCRF-CEM T lymphoblastoid (human acute lymphoblastic leukemia, CCL 119), human promyelocytic leukemia HL-60 (CCL 240), human cervix carcinoma HeLa S3, rat pheochromocytoma PC12, human colon adenocarcinoma SW480 (CCL-228), and normal rat epithelial cells (IEC-6, CRL-1592) from ATCC (Manassas, VA, USA), were used. […] Table 4. Cytostatic effect of selected peptides on cancer cells

[7] = tested on: human cervix carcinoma HeLa S3; assay: Cytostatic effect on cancer cells (e.g. MTT test); format: cell-based; conditions: 24-72 h incubation, 50% decrease in cell viability; read-out: IC50 [µM] HeLaS3
Protocol: as §2

[8] = tested on: human promyelocytic leukemia HL-60; assay: Cytostatic effect on cancer cells (e.g. MTT test); format: cell-based; conditions: 24-72 h incubation, 50% decrease in cell viability
Protocol: as §2

[9] = tested on: human colon adenocarcinoma SW480; assay: Cytostatic effect on cancer cells (e.g. MTT test); format: cell-based; conditions: 24-72 h incubation, 50% decrease in cell viability
Protocol: as §2

[10] = tested on: mouse lymphocytic leukemia L1210; assay: Cytostatic effect on cancer cells (e.g. MTT test); format: cell-based; conditions: 24-72 h incubation, 50% decrease in cell viability
Protocol: as §2

H-GFLSILKKVLAKVMAHMK-NH2 [II/2, H-Gly-Phe-Leu-Ser-Ile-Leu-Lys-Lys-Val-Leu-Ala-Lys-Val-Met-Ala-His-Met-Lys-NH2]
Hemolytic activity [1]: 29.7 µM | IC50 [2]: 18.3 µM | IC50 [3]: 1.6 µM | IC50 [4]: 4.7 µM | IC50 [5]: 1.3 µM

H-GFLSILKKVLKKVMAHMK-NH2 [II/1, H-Gly-Phe-Leu-Ser-Ile-Leu-Lys-Lys-Val-Leu-Lys-Lys-Val-Met-Ala-His-Met-Lys-NH2]
Hemolytic activity [1]: 27.3 µM | IC50 [2]: 25.3 µM | IC50 [3]: 1.8 µM | IC50 [4]: 13.3 µM | IC50 [5]: 1.4 µM

H-GFLSILKKVLP-NH2 [II/12, H-Gly-Phe-Leu-Ser-Ile-Leu-Lys-Lys-Val-Leu-Pro-NH2]
Hemolytic activity [1]: »200 µM | IC50 [2]: > 100 µM | IC50 [3]: 78 µM | IC50 [4]: > 100 µM | IC50 [5]: 13 µM

H-GFLSILKKVLPKVLAHLK-NH2 [II/5, H-Gly-Phe-Leu-Ser-Ile-Leu-Lys-Lys-Val-Leu-Pro-Lys-Val-Leu-Ala-His-Leu-Lys-NH2]
Hemolytic activity [1]: 43.7 µM | IC50 [2]: 20 µM | IC50 [3]: 1.2 µM | IC50 [4]: 5 µM | IC50 [5]: 0.8 µM

H-GFLSILKKVLPKVMAKMK-NH2 [II/4, H-Gly-Phe-Leu-Ser-Ile-Leu-Lys-Lys-Val-Leu-Pro-Lys-Val-Met-Ala-Lys-Met-Lys-NH2]
Hemolytic activity [1]: >100 µM | IC50 [2]: 33.6 µM | IC50 [3]: 2.1 µM | IC50 [4]: 16.8 µM | IC50 [5]: 0.7 µM

H-GFLSILKKVLPKVMHAMK-NH2 [II/6, H-Gly-Phe-Leu-Ser-Ile-Leu-Lys-Lys-Val-Leu-Pro-Lys-Val-Met-His-Ala-Met-Lys-NH2]
Hemolytic activity [1]: 150 µM | IC50 [2]: 35.1 µM | IC50 [3]: 2.1 µM | IC50 [4]: 9.1 µM | IC50 [5]: 1.1 µM

H-GFLSILKKVLPKVMKAMK-NH2 [II/7, H-Gly-Phe-Leu-Ser-Ile-Leu-Lys-Lys-Val-Leu-Pro-Lys-Val-Met-Lys-Ala-Met-Lys-NH2]
Hemolytic activity [1]: 70 µM | IC50 [6]: 8.8 µM | IC50 [7]: 9.6 µM | IC50 [8]: 9.1 µM | IC50 [9]: 12.5 µM | IC50 [10]: 6.9 µM | IC50 [2]: 31.7 µM | IC50 [3]: 1.5 µM | IC50 [4]: 7.7 µM | IC50 [5]: 0.8 µM

H-GLSILKKVLKKVMAHMK-NH2 [II/17, H-Gly-...-Leu-Ser-Ile-Leu-Lys-Lys-Val-Leu-Lys-Lys-Val-Met-Ala-His-Met-Lys-NH2]
Hemolytic activity [1]: »200 µM

H-LSILKKVLPKVMAHMK-NH2 [II/10, H-Leu-Ser-Ile-Leu-Lys-Lys- Val-Leu-Pro-Lys-Val-Met-Ala-His-Met-Lys-NH2]
Hemolytic activity [1]: »200 µM | IC50 [2]: > 100 µM | IC50 [3]: 76.2 µM | IC50 [4]: > 100 µM | IC50 [5]: 7.9 µM

H-SILKKVLPKVMAHMK-NH2 [II/11, H-Ser-Ile-Leu-Lys-Lys-Val-Leu-Pro-Lys-Val-Met-Ala-His-Met-Lys-NH2]
Hemolytic activity [1]: »200 µM | IC50 [2]: > 100 µM | IC50 [3]: > 100 µM | IC50 [4]: > 100 µM | IC50 [5]: 21.8 µM
